From patent publication US5863950A, “HIV protease inhibitors” (Agouron Pharmaceuticals, Inc., priority 1994, dated 1999)
In brackets after ≈: the same amount, converted by molar mass. Where two headings read alike, the source gives them in different places.

What was measured:
HIV-1 (CEM cells) = assay: Anti-HIV MTT assay, inhibition of HIV-induced cell killing, CEM cells; assay type: cell-based, HIV-1 isolates IIIB and/or RF; conditions: Human immunodeficiency virus 1, CCRF-CEM, 144 h, CEM cell line (first position), 6 days, 37° C., read-out: Viral CEM
Excerpt: (§1) SRI has an established program for the primary antiviral analysis of compounds in microtiter assays which measure the ability of a selected compound to inhibit HIV-induced cell killing. This assay involves the conversion of the tetrazolium dye MTT to a colored formazan product by mitochondrial enzymes in metabolically active cells. This assay system is presently used at SRI to screen over 30,000 compounds per year. Briefly, the assay involves the infection of CEM or MT2 cells in round bottom 96-well plates. The compound of interest is added just prior to infection. Following 6 days of incubation at 37° C. the plates are stained with MTT. The results of the assay are quantitated spectrophotometrically on a Molecular Devices Vmax plate reader. The data is analyzed by linear regression utilizing an in-house software program to calculate antiviral activity. (IC25, IC50, IC95) and toxicity (TC25, TC50, TC95) as well as other values.
(§2) Primary antiviral assays are routinely performed in CEM or MT-2 cells.
(§3) Drugs will be solubilized in the appropriate vehicle such as distilled water or DMSO if necessary. Latex gloves, lab coats and masks are used during all phases of the handling process to prevent exposure to potentially harmful agents. The drug is prepared at the appropriate concentration and stored at -20° C. until used by the screening laboratory. The first dilution of each compound is made in a dilution tube with medium to yield a concentration two-fold that of the highest test concentration. Sterile titer tubes are then used to make serial one half-log dilutions of each compound. Following drug dilution, the diluted compound is added to the appropriate well of a 96-well microtiter plate. Up to 12 dilutions can be assayed conveniently in triplicate on a single plate with all appropriate controls including cell control, virus control, toxicity control, drug color control, medium control and plastic (background) control. When testing includes only six dilutions, two drugs can be assayed on a single microtiter plate. The drugs are added to the plate in a final volume of 100 microliters.
(§4) During the time the drug dilutions are prepared, cells are washed and counted. Viability is monitored by trypan blue dye exclusion and assays are not performed if the viability falls below 90%. Cells are maintained in an exponential growth phase and are split 1:2 on the day prior to assay to assure exponential growth rate.
(§5) For the primary screen, the cell lines utilized are CEM and MT-2. Unless otherwise indicated, the medium used is RPMI 1640 with 10% heat-inactivated fetal calf serum (FBS), glutamine and antibiotics.
(§6) Cells are propagated at 37° C. in an atmosphere of 5% CO2 in air. The virus employed for this work is HIV-1 isolates IIIB and/or RF, which are prepared by an acute infection process.
(§7) Briefly, virus-infected cells are pelleted on a daily basis beginning at three days post-infection until the virus has killed all of the cells in the culture. Reverse transcriptase activity and p24 ELISA are used to identify pools with the greatest amount of virus.
(§8) These 24-hour harvests are pooled, filtered and frozen at -90° C. Prior to use in the assay, the infectious pool of virus is titered on all available cell lines in order to determine the amount of virus required in the antiviral assay.
(§9) In general, pools produced by the acute infection method require the addition of one microliter of infectious virus per well resulting in the screening of drugs at a multiplicity of infection of 0.01. In this manner enough virus is prepared and frozen to complete over one thousand microtiter plates, allowing the testing of up to two thousand compounds from a single stock of infectious virus. The use of a single stock of virus for a long period of testing has very favorable effects on the repeatability of the assay systems.
(§10) Virus infection of the CEM and MT-2 cells for the antiviral assay is carried out in a bulk infection process. […]

HIV-1 protease = target: T1, HIV-1 protease (Human immunodeficiency virus type 1 group M subtype B, UniProt P04585); assay: biochemical; assay type: biochemical
T1 construct: purified HIV-1 protease
Experimental: 1. Proteolytic activity of purified HIV-1 protease was routinely measured using the chromogenic assay developed by Richards et al. (J. Biol. Chem. 265: 7733 (1990)). Synthetic peptide His-Lys-Ala-Arg-Val-Leu-Phe (pNO2)-Glu-Ala-Nle-Ser-NH2 (American Peptide Company) was used as the substrate.
2. The assay was carried out in 0.5M NaCl, 50 mM MES pH 5.6, 2% DMSO (dimethylsulfoxide) at 37° C. Cleavage of the scissile bond between leucine and paranitro-phenylalanine (Phe(pNO2)) was assayed by spectrophotometric monitoring of the decrease in absorbance at 305 nm. Initial velocity was determined as the rate of decline of absorbance during the first 100 seconds of reaction.
3. […] Between 15-25 concentrations of inhibitor were added and velocity of reaction was measured at each of the concentrations, as described above.
4. Inhibition constants were calculated using the method of Jackson et al. (Adv. in Enzyme Regulation 22: 187 (1984)).

HIV-1 (MT-2 cells) = assay: Anti-HIV MTT assay, inhibition of HIV-induced cell killing, MT-2 cells; assay type: cell-based, HIV-1 isolates IIIB and/or RF; conditions: Human immunodeficiency virus 1, MT2, 144 h, read-out: Viral MT-2
Excerpt: as §1, §2, §3, §4, §5, §6, §7, §8, §9, §10

[1] = 0.5M NaCl, 50 mM MES pH 5.6, 2% DMSO, 37° C., 200 μM substrate
[2] = MT-2 cells (second position), 6 days, 37° C., MTT

Compound | IC50 (HIV-1 (CEM cells)) [µg/mL] | IC50 (HIV-1 protease; [1]) [nM] | Ki (HIV-1 protease; [1]) [nM] | IC50 (HIV-1 (MT-2 cells); [2]) [µg/mL] | also measured
CCC1(N(CCO)C(=O)c2ccccc2CCC(O)Cc2ccccc2C(=O)N(CCO)C23CCCCC2CCCC3)CCCC1 (centres unmarked) [Example 97] | 1.58 (≈ 2.5 µM) | 225 | 38 | > 10 | –
CC(C)(C)N(CCO)C(=O)c1ccccc1CCC(O)Cc1ccccc1C(=O)N(CCOc1ccncc1)C(C)(C)c1ccccc1 (centres unmarked) [Example 83] | > 100 | 2500 | 735 | > 100 | –
CCCC(CC)(CC)N(CCO)C(=O)c1cc(C)ccc1CC(O)CCc1ccccc1C(=O)N(CCO)C1(CC)CCCC1 (centres unmarked) [Example 109] | 0.79 (≈ 1.27 µM) | 59 | 13.6 | – | IC50 (HIV-1 (MT-2 cells)): 0.59 µg/mL (≈ 0.947 µM)
CC(C)(c1ccccc1)N(CCO)C(=O)c1ccccc1CCC(O)Cc1ccccc1C(=O)N(CCO)C(C)(C)c1ccccc1 (centres unmarked) [Example 65] | 0.89 (≈ 1.4 µM) | 82 | 31 | 1.76 (≈ 2.76 µM) | –
CCC1(N(CCO)C(=O)c2ccccc2CCC(O)Cc2ccc(C)cc2C(=O)N(CCO)C(CC)(CC)c2ccccc2)CCCC1 (centres unmarked) [Example 101] | 4.16 (≈ 6.33 µM) | 102 | 4 | 1.67 (≈ 2.54 µM) | –
CCC1(N(CCO)C(=O)c2ccccc2CC[C@@H](O)Cc2ccc(C)cc2C(=O)N(CCO)C(C)(C)c2ccccc2)CCCC1 [Example 112] | 0.54 (≈ 0.859 µM) | – | – | 1.47 (≈ 2.34 µM) | –
CCC1(N(CCO)C(=O)c2ccccc2CCC(O)Cc2ccc(C)cc2C(=O)N(CC(CO)CO)C(C)(C)c2ccccc2)CCCC1 (centres unmarked) [Example 103] | 0.64 (≈ 0.951 µM) | 106 | – | 1.15 (≈ 1.71 µM) | Ki (HIV-1 protease): 10 nM
CCC1(N(CCO)C(=O)c2ccccc2CCC(O)Cc2ccc(C)cc2C(=O)N(CCO)C(C)(C)c2ccc(OCc3cccnc3)cc2)CCCC1 (centres unmarked) [Example 98] | 0.48 (≈ 0.652 µM) | 103 | 2 | 1.94 (≈ 2.64 µM) | –
CCC1(N(CCO)C(=O)c2ccccc2CCC(O)Cc2ccccc2C(=O)N(CCO)C(C)(C)c2ccccc2)CCCC1 (centres unmarked) [Example 82] | 0.75 (≈ 1.22 µM) | 104 | 17 | 0.64 (≈ 1.04 µM) | –
CCC1(N(CCO)C(=O)c2ccccc2CCC(O)Cc2ccc(C)cc2C(=O)N(CCO)C(C)(C)c2ccc(O)cc2)CCCC1 (centres unmarked) [Example 96] | 0.57 (≈ 0.884 µM) | – | – | 1.18 (≈ 1.83 µM) | IC50 (HIV-1 protease): 63 nM; Ki (HIV-1 protease): 4 nM
CCC1(N(CCOC(C)=O)C(=O)c2ccccc2CCC(O)Cc2ccc(C)cc2C(=O)N(CCOC(C)=O)C(C)(C)c2ccccc2)CCCC1 (centres unmarked) [Example 110] | 0.69 (≈ 0.968 µM) | 68 | 5.4 | 1.72 (≈ 2.41 µM) | –
CCC1(N(CCO)C(=O)c2ccccc2CCC(O)Cc2ccccc2C(=O)N(CCO)C(CC)(CC)c2ccccc2)CCCC1 (centres unmarked) [Example 95] | 0.6 (≈ 0.933 µM) | 90 | 1.5 | 1.46 (≈ 2.27 µM) | –
CCC1(N(CCO)C(=O)c2ccccc2CCC(O)Cc2ccc(C)cc2C(=O)N(CCO)C(C)(C)c2ccc(OCCN3CCOCC3)cc2)CCCC1 (centres unmarked) [Example 108] | 0.64 (≈ 0.844 µM) | 108 | 9.8 | 0.56 (≈ 0.739 µM) | –
CCc1ccc(CC(O)CCc2ccccc2C(=O)N(CCO)C(C)(C)c2ccccc2)c(C(=O)N(CCO)C(C)(C)c2ccccc2)c1 (centres unmarked) [Example 89] | 1 (≈ 1.5 µM) | 144 | 17 | 1.79 (≈ 2.69 µM) | –
CCC1(N(CCO)C(=O)c2ccccc2CCC(O)Cc2ccc(C)cc2C(=O)N(CC2COC(C)(C)OC2)C(C)(C)c2ccccc2)CCCC1 (centres unmarked) [Example 102] | 0.42 (≈ 0.589 µM) | 133 | 2.3 | 0.47 (≈ 0.659 µM) | –
CC(C)(C)N(CCO)C(=O)c1ccccc1CCC(O)Cc1ccccc1C(=O)N(Cc1ncc[nH]1)C(C)(C)c1ccccc1 (centres unmarked) [Example 72] | 5.54 (≈ 9.07 µM) | 326 | 100 | 17.9 (≈ 29.3 µM) | –
CC(C)(C)NC(=O)c1c(CCC(O)Cc2ccccc2C(=O)N(Cc2ncc[nH]2)C(C)(C)C)ccc2ccccc12 (centres unmarked) [Example 12] | 29.5 (≈ 53.2 µM) | 820 | 790 | – | –
CC(C)(C)N(CCO)C(=O)c1ccccc1CCC(O)Cc1ccccc1C(=O)N(Cc1ccccc1)C(C)(C)C (centres unmarked) [Example 64] | – | 8300 | 7900 | – | –
CCC1(N(CCO)C(=O)c2ccccc2CCC(O)Cc2ccc(C)cc2C(=O)N(CCO)C(C)(C)c2ccccc2)CCCC1 (centres unmarked) [Example 18] | 0.49 (≈ 0.779 µM) | – | – | 0.53 (≈ 0.843 µM) | –
CC(C)(C)NC(=O)c1c(CCC(O)Cc2ccccc2-c2nccc3ccccc23)ccc2ccccc12 (centres unmarked) [Example 16] | – | – | – | – | percent (inhibition) (HIV-1 protease; at 50 (μM)): 20%
CC(C)(C)NC(=O)c1ccccc1/C=C/C(O)Cc1ccccc1C(=O)NC(C)(C)C (centres unmarked) [Example 28] | – | – | – | – | percent (inhibition) (HIV-1 protease; at 200 (μM)): 40%
CC(C)(C)NC(=O)c1c(CCC(O)Cc2ccccc2C(=O)N(Cc2nc3ccccc3[nH]2)C(C)(C)C)ccc2ccccc12 (centres unmarked) [Example 67] | – | – | – | – | percent (inhibition) (HIV-1 protease; at 10 (μM)): 40%
CCNC(=O)c1ccccc1CC(O)CSc1ccccc1C(=O)NCCN(C)C (centres unmarked) [Example 38] | – | > 500000 | – | – | –
CC(C)(C)N(CCO)C(=O)c1ccccc1CCC(O)Cc1ccccc1C(=O)N(CCOCc1ccccc1)C(C)(C)c1ccncc1 (centres unmarked) [Example 76] | – | 1740 | 920 | – | –
CC(C)(C)N(CCO)C(=O)c1ccccc1CC(O)C(O)Cc1ccccc1C(=O)N(CCO)C(C)(C)C (centres unmarked) [Example 58] | – | 9600 | 7700 | – | –
CC(C)(C)NC(=O)c1ccccc1CC(O)CSc1ccc(NCc2ccncc2)cc1C(=O)NC(C)(C)C (centres unmarked) [Example 46] | – | 200000 | – | – | –
CC(C)(C)N(CCO)C(=O)c1ccccc1CC(O)CSc1ccccc1C(=O)N(CCO)C(C)(C)C (centres unmarked) [Example 85] | – | 36000 | 18400 | – | –
